Measurements: EP0597303A2, “Cephalosporin derivatives” (priority 1992, dated 1994)
Where a name gives a salt, the structure may show the parent alone. Read-outs that look alike come from different tables or passages of the source.

Columns and labels:
Experiment in all cases: MIC, Agar (Mueller Hinton) Dilution Method
Format in all cases: cell-based
[1] = tested on: Proteus vulgaris ATCC 6380; details: ATCC6380
Text: (§1) The in vitro activity of the compounds of formula I of the present invention as measured by the Minimum Inhibitory Concentration (MIC) in micrograms/ml utilizing the Agar (Mueller Hinton) Dilution Method against a variety of Gram-positive and Gram-negative organisms, is set forth in Table 1.

Staph. pyogenes 4 = tested on: Staph. pyogenes 4
Text: as §1

Klebsiella pneumoniae A = details: Gram Negative
Text: as §1

Micrococcus luteus PCI = details: Micrococcus luteus PCI; Gram Positive and Others; read-out: MIC
Text: as §1

Cit. freundii EL-1408 = details: Citrobacter freundii, EL1408
Text: as §1

Staph. aureus ATCC 29213 = details: Staphylococcus aureus, ATCC29213
Text: as §1

E. coli B = details: Escherichia coli, Gram Negative
Text: as §1

Staph. aureus Evans = details: Staphylococcus aureus
Text: as §1

E. coli 1527E = details: Escherichia coli, Gram Negative
Text: as §1

Ps. aeruginosa 18SH = details: Pseudomonas aeruginosa, constitutive ß-lactamase producer, Gram Negative
Text: as §1

Ent. hirae ATCC 8043 = details: Enterococcus hirae, ATCC8043, Gram Positive and Others
Text: as §1

E. coli TEM-1a = details: Escherichia coli, TEM1A
Text: as §1

Staph. aureus 404 = details: Staphylococcus aureus, 404
Text: as §1

Mycobacterium phlei 78 = details: Mycolicibacterium phlei
Text: as §1

Staph. aureus 95 = details: Staphylococcus aureus, 95
Text: as §1

Prov. rettgeri ATCC 9250 = details: Providencia rettgeri, ATCC9250, Gram Negative
Text: as §1

Ser. marcescens 1071 = details: Serratia marcescens, 1071
Text: as §1

Enter. cloacae 4192-2 = details: Enterobacter cloacae, 41922
Text: as §1

E. coli 2722B = details: Escherichia coli, Gram Negative
Text: as §1

A. calcoaceticus PCI-3 = details: Acinetobacter calcoaceticus, PCI3, Gram Negative
Text: as §1

Ser. sp. 101 = tested on: Ser. sp. 101
Text: as §1

Ps. aeruginosa 56 = details: Pseudomonas aeruginosa, Gram Negative
Text: as §1

Serratia marcescens SM = tested on: Serratia marcescens SM
Text: as §1

Ps. aeruginosa 1973 E = details: Pseudomonas aeruginosa, Gram Negative
Text: as §1

E. coli 2008 E = details: Escherichia coli
Text: as §1

[2] = tested on: Pseudomonas aeruginosa 5712; details: Gram Negative
Text: as §1

Prot. vulgaris 100 = details: Proteus vulgaris, Gram Negative
Text: as §1

Staph. aureus 82 = details: Staphylococcus aureus
Text: as §1

E. coli Leo HA2M4 = details: Escherichia coli, LEOHA2M4
Text: as §1

Ps. aeruginosa B = details: Pseudomonas aeruginosa, Gram Negative
Text: as §1

Ps. aeruginosa K799/61 = details: Pseudomonas aeruginosa; Ps. aeruginosa K799/61; Gram Negative; read-out: MIC
Text: as §1

Staph. aureus 1059B = details: Staphylococcus aureus, 1059B
Text: as §1

Prot. mirabilis 620A = details: Proteus mirabilis
Text: as §1

Prot. mirabilis 190 = details: Proteus mirabilis
Text: as §1

E. coli DC-2 = details: Escherichia coli, DC2, Gram Negative
Text: as §1

Escherichia coli 257 = details: Gram Negative
Text: as §1

Ps. aeruginosa 1937E = details: Pseudomonas aeruginosa, Gram Negative
Text: as §1

Prot. mirabilis 90 = details: Proteus mirabilis
Text: as §1

Ent. faecalis ATCC 29212 = details: Enterococcus faecalis, ATCC29212, Gram Positive and Others
Text: as §1

Compound	MIC (Klebsiella pneumoniae A)	MIC (Micrococcus luteus PCI)	MIC (E. coli B)	MIC (E. coli 1527E)	MIC (Ps. aeruginosa 18SH)	MIC (Ent. hirae ATCC 8043)	MIC (E. coli TEM-1a)	MIC (Staph. aureus 404)	MIC (Staph. aureus 95)	MIC (Prov. rettgeri ATCC 9250)	MIC (Ser. marcescens 1071)	MIC (E. coli 2722B)	MIC (A. calcoaceticus PCI-3)	MIC (Ps. aeruginosa 56)	MIC (Ps. aeruginosa 1973 E)	MIC [2]	MIC (Prot. vulgaris 100)	MIC (Ps. aeruginosa B)	MIC (Ps. aeruginosa K799/61)	MIC (Staph. aureus 1059B)	other results
N#CCC(=O)N[C@@H]1C(=O)N2C(C(=O)O)=C(COC(=O)N[C@H]3CCN(c4c(F)cc5c(=O)c(C(=O)O)cn(C6CC6)c5c4F)C3)CS[C@H]12 [Formula Iba, [6R-[3(S^*), 6 alpha, 7 beta]]-3-[[[[[1-(3-Carboxy-1-cyclopropyl-6,8-difluoro-1,4-dihydro-4-oxo-7-quinolinyl-3-pyrrolidinyl]-amino]carbonyl]oxy]methyl]-7-[(cyanoacetyl)amino]-8-oxo-5-thia 1-azabicyclo[4.2.0]oct-2-ene-2-carboxylic acid monosodium salt]	0.0625 mg/L	0.0625 mg/L	≤ 0.0156 mg/L	≤ 0.0156 mg/L	0.25 mg/L	0.5 mg/L	0.0313 mg/L	0.0313 mg/L	0.0313 mg/L	0.0625 mg/L	0.0313 mg/L	≤ 0.0156 mg/L	0.0625 mg/L	0.25 mg/L	0.25 mg/L	2 mg/L	0.0625 mg/L	0.25 mg/L	0.0625 mg/L	0.0313 mg/L	MIC ([1]; Proteus vulgaris ATCC 6380, constitutive ß-lactamase producer, Gram Negative, read-out: MIC): 0.0625 mg/L; MIC (Staph. pyogenes 4; 4): 0.0313 mg/L; MIC (Cit. freundii EL-1408): 0.125 mg/L; MIC (Staph. aureus ATCC 29213; Staph. aureus ATCC 29213, Gram Positive and Others, read-out: MIC): 0.0625 mg/L; MIC (Staph. aureus Evans): 0.0313 mg/L; MIC (Mycobacterium phlei 78; Mycobacterium phlei 78, Gram Positive and Others, read-out: MIC): 0.0625 mg/L; MIC (Enter. cloacae 4192-2; Enter. cloacae 4192-2, Gram Negative, read-out: MIC): ≤ 0.0156 mg/L; MIC (Ser. sp. 101; Ser. sp. 101, Gram Negative, read-out: MIC): 0.0625 mg/L; MIC (Serratia marcescens SM; Serratia marcescens): 0.125 mg/L; MIC (E. coli 2008 E; 2008E): 0.0313 mg/L; MIC (Staph. aureus 82; Staph. aureus 82, Gram Positive and Others, read-out: MIC): 0.0625 mg/L; MIC (E. coli Leo HA2M4; E. coli Leo HA2M4, Gram Negative, read-out: MIC): ≤ 0.0156 mg/L; MIC (Prot. mirabilis 620A; Prot. mirabilis 620A, Gram Negative, read-out: MIC): 0.0625 mg/L; MIC (Prot. mirabilis 190; 190): 0.0313 mg/L; MIC (E. coli DC-2): 0.0625 mg/L; MIC (Escherichia coli 257): 0.0313 mg/L; MIC (Ps. aeruginosa 1937E): 0.25 mg/L; MIC (Prot. mirabilis 90; 90): 0.125 mg/L; MIC (Ent. faecalis ATCC 29212): 0.5 mg/L
N#CCC(=O)N[C@@H]1C(=O)N2C(C(=O)O)=C(COC(=O)N[C@@H]3CCN(c4c(F)cc5c(=O)c(C(=O)O)cn(C6CC6)c5c4F)C3)CS[C@H]12 [Formula Ibb, [6R-[3(R^*), 6 alpha, 7 beta]]-3-[[[[[1-(3-Carboxy-1-cyclopropyl-6,8-difluoro-1,4-dihydro-4-oxo-7-quinolinyl-3-pyrrolidinyi]amino]carbonyl]oxy]methyL]-7-[(cyanoacetyl)amino]-8-oxo-5-thia-1-azabicyclo[4.2.0]oct-2-ene-2-carboxylic acid monosodium salt]	0.25 mg/L	0.0625 mg/L	0.0313 mg/L	0.0625 mg/L	1 mg/L	1 mg/L	0.125 mg/L	0.125 mg/L	0.125 mg/L	0.25 mg/L	0.125 mg/L	≤ 0.0156 mg/L	0.5 mg/L	1 mg/L	1 mg/L	4 mg/L	0.0625 mg/L	1 mg/L	0.25 mg/L	0.125 mg/L	MIC ([1]; Proteus vulgaris): 0.125 mg/L; MIC (Staph. pyogenes 4; Staph. pyogenes 4, Gram Positive and Others, read-out: MIC): 0.0625 mg/L; MIC (Cit. freundii EL-1408; Cit. freundii EL-1408, Gram Negative, read-out: MIC): 0.5 mg/L; MIC (Staph. aureus ATCC 29213): 0.125 mg/L; MIC (Staph. aureus Evans; Staph. aureus Evans, Gram Positive and Others, read-out: MIC): 0.0625 mg/L; MIC (Mycobacterium phlei 78; 78): 0.125 mg/L; MIC (Enter. cloacae 4192-2): 0.0313 mg/L; MIC (Ser. sp. 101): 0.125 mg/L; MIC (Serratia marcescens SM; Serratia marcescens SM, constitutive ß-lactamase producer, Gram Negative, read-out: MIC): 0.25 mg/L; MIC (E. coli 2008 E; E. coli 2008 E, Gram Negative, read-out: MIC): 0.0625 mg/L; MIC (Staph. aureus 82; 82): 0.125 mg/L; MIC (E. coli Leo HA2M4): 0.0313 mg/L; MIC (Prot. mirabilis 620A; 620A): 0.125 mg/L; MIC (Prot. mirabilis 190; Prot. mirabilis 190, Gram Negative, read-out: MIC): 0.0625 mg/L; MIC (E. coli DC-2): 0.25 mg/L; MIC (Escherichia coli 257): 0.125 mg/L; MIC (Ps. aeruginosa 1937E): 1 mg/L; MIC (Prot. mirabilis 90; Prot. mirabilis 90, Gram Negative, read-out: MIC): 0.5 mg/L; MIC (Ent. faecalis ATCC 29212): 2 mg/L
